Experiments:
Format in all cases: biochemical
[1] = test system: carboxylate reductase of SEQ ID NO: 3 (Mycobacterium smegmatis); assay: Carboxylate reductase enzyme activity assay, glutarate methyl ester as substrate (NADPH consumption at 340 nm); conditions: 2 mM glutarate methyl ester, 1 mM NADPH, 1 mM ATP, pH 7.5, room temperature 20 min; enhanced by gene product of sfp; against empty vector control
Protocol: (§1) A nucleotide sequence encoding a His-tag was added to the genes from Mycobacterium marinum, Mycobacterium smegmatis, Segniliparus rugosus, Mycobacterium massiliense, and Segniliparus rotundus that encode the carboxylate reductases of SEQ ID NOs: 2-4, 6 and 7, respectively (GenBank Accession Nos. ACC40567.1, ABK71854.1, EFV11917.1, EIV11143.1, and ADG98140.1, respectively) (see FIG. 8) such that N-terminal HIS tagged carboxylate reductases could be produced. Each of the modified genes was cloned into a pET Duet expression vector alongside a sfp gene encoding a His-tagged phosphopantetheine transferase from Bacillus subtilis, both under control of the T7 promoter. Each expression vector was transformed into a BL21[DE3] E. coli host along with the expression vectors from Example 2. Each resulting recombinant E. coli strain was cultivated at 37° C. in a 250 mL shake flask culture containing 50 mL LB media and antibiotic selection pressure, with shaking at 230 rpm. Each culture was induced overnight at 37° C. using an auto-induction media.
(§2) The pellet from each induced shake flask culture was harvested via centrifugation. Each pellet was resuspended and lysed via sonication. The cell debris was separated from the supernatant via centrifugation. The carboxylate reductases and phosphopantetheine transferase were purified from the supernatant using Ni-affinity chromatography, diluted 10-fold into 50 mM HEPES buffer (pH=7.5) and concentrated via ultrafiltration.
(§3) The enzyme activity assay was performed in triplicate in a buffer composed of a final concentration of 50 mM HEPES buffer (pH=7.5), 2 mM glutarate methyl ester, 10 mM MgCl2, 1 mM ATP and 1 mM NADPH. The enzyme activity assay reaction was initiated by adding purified carboxylate reductase and phosphopantetheine transferase or the empty vector control to the assay buffer containing the glutarate methyl ester and then incubated at room temperature for 20 min. The consumption of NADPH was monitored by absorbance at 340 nm.

[2] = target: T1, carboxylate reductase of SEQ ID NO: 2 (Mycobacterium marinum) (Mycobacterium marinum, UniProt B2HN69); assay: as above; conditions: 2 mM glutarate methyl ester, 1 mM NADPH, 1 mM ATP, pH 7.5, room temperature 20 min; enhanced by gene product of sfp; against empty vector control
T1 construct: His-tag (N); made in house; host or cells: E. coli BL21[DE3], pET Duet vector
T1 sequence (B2HN69 whole entry): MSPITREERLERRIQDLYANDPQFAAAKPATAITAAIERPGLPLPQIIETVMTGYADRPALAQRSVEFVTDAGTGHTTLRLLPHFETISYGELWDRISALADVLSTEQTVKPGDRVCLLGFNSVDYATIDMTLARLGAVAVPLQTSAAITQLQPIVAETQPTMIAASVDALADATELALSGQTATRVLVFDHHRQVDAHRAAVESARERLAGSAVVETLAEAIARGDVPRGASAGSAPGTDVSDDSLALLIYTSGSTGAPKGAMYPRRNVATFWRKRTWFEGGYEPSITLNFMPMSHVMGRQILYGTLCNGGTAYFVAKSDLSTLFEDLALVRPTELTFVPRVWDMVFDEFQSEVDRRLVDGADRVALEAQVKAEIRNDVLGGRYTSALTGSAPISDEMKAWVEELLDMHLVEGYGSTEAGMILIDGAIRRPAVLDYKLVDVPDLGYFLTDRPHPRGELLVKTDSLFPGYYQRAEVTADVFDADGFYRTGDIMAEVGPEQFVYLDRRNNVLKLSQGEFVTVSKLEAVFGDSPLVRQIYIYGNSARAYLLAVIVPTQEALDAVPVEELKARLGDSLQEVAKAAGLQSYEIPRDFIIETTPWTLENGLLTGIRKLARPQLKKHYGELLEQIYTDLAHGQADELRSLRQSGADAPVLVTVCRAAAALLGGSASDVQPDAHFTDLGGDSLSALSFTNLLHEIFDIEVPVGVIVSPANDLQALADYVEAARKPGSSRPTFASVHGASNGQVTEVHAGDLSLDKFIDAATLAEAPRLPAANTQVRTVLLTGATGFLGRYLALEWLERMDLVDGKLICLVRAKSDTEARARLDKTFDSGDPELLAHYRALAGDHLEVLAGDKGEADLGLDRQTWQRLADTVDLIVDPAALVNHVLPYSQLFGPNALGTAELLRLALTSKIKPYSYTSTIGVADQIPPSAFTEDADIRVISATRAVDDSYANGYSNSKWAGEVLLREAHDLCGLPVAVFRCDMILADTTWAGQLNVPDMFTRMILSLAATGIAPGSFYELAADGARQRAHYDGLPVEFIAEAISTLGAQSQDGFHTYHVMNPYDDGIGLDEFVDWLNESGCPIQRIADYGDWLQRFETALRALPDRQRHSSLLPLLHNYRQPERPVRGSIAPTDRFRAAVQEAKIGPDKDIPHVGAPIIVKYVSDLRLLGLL
Protocol: as §1, §2, §3

[3] = test system: carboxylate reductase of SEQ ID NO: 7 (Segniliparus rotundus); assay: as above; conditions: 2 mM glutarate methyl ester, 1 mM NADPH, 1 mM ATP, pH 7.5, room temperature 20 min; enhanced by gene product of sfp; against empty vector control
Protocol: as §1, §2, §3

[4] = test system: carboxylate reductase of SEQ ID NO: 6 (Mycobacterium massiliense); assay: as above; conditions: 2 mM glutarate methyl ester, 1 mM NADPH, 1 mM ATP, pH 7.5, room temperature 20 min; enhanced by gene product of sfp; against empty vector control
Protocol: as §1, §2, §3

[5] = target: T2, pimeloyl-[acp] methyl ester methylesterase of SEQ ID NO: 1 (Escherichia coli, UniProt P13001); assay: Pimeloyl-[acp] methyl ester methylesterase enzyme activity assay, glutaryl-CoA methyl ester to glutaryl-CoA (LC-MS); conditions: 5 mM glutaryl-CoA methyl ester, 10 μM enzyme, 25 mM Tris.HCl pH 7.0, 30° C., 1 h
T2 construct: His-tag (C); made in house; host or cells: E. coli BL21[DE3], pET28b+ vector
T2 sequence (P13001 whole entry): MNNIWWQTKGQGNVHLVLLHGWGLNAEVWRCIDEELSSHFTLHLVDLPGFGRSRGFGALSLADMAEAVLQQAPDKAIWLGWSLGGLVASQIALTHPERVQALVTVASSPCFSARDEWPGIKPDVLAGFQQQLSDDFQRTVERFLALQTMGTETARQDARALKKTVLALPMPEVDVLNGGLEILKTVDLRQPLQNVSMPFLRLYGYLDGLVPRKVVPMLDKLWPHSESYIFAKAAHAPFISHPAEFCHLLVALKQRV
Protocol: A sequence encoding an C-terminal His-tag was added to the gene from Escherichia coli encoding the pimeloyl-[acp] methyl ester methylesterase of SEQ ID NO: 1 (see FIG. 8) such that C-terminal HIS tagged pimeloyl-[acp] methyl ester methylesterase could be produced. The resulting modified gene was cloned into a pET28b+ expression vector under control of the T7 promoter and the expression vector was transformed into a BL21[DE3] E. coli host. The resulting recombinant E. coli strain was cultivated at 37° C. in a 500 mL shake flask culture containing 100 mL LB media and antibiotic selection pressure, with shaking at 230 rpm. Each culture was induced overnight at 18° C. using 0.3 mM IPTG.
The pellet from each induced shake flask culture was harvested via centrifugation. Each pellet was resuspended and lysed via sonication. The cell debris was separated from the supernatant via centrifugation. The pimeloyl-[acp] methyl ester methylesterase was purified from the supernatant using Ni-affinity chromatography, buffer exchanged and concentrated into 20 mM HEPES buffer (pH=7.5) via ultrafiltration and stored at 4° C.
Enzyme activity assays converting glutaryl-CoA methyl ester to glutaryl-CoA were performed in triplicate in a buffer composed of a final concentration of 25 mM Tris.HCl buffer (pH=7.0) and 5 [mM] glutaryl-CoA methyl ester. […] The formation of glutaryl-CoA was quantified via LC-MS.

SMILES	acceptance as substrate, forming glutarate semialdehyde methyl ester [1]	acceptance as substrate, forming glutarate semialdehyde methyl ester [2]	acceptance as substrate, forming glutarate semialdehyde methyl ester [3]	acceptance as substrate, forming glutarate semialdehyde methyl ester [4]	acceptance as substrate, forming glutaryl-CoA [5]
COC(=O)CCCC(=O)O [glutarate methyl ester]	accepted glutarate methyl ester as substrate	accepted glutarate methyl ester as substrate	accepted glutarate methyl ester as substrate	accepted glutarate methyl ester as substrate	
COC(=O)CCCC(=O)SCCNC(=O)CCNC(=O)C(O)C(C)(C)COP(=O)(O)OP(=O)(O)OCC1OC(n2cnc3c(N)ncnc32)C(O)C1OP(=O)(O)O (centres unmarked) [glutaryl-CoA methyl ester]					accepted glutaryl-CoA methyl ester as substrate
